Tests used:
[1] = tested on: various human cancer cell lines; settings: oral administration alone; lung cancer, large bowel cancer, uterus cancer and the like; cited from earlier work
hepatocellular carcinoma = test: Comparative clinical study of TSU-68 therapy in hepatocellular carcinoma patients treated with TACE; type: in vivo; settings: for Median of progression-free survival: 200 mg orally twice daily, started within 2 weeks after TACE
Procedure: A comparative clinical study was conducted for the TSU-68 administration group and the TSU-68 non-administration group consisting of cases that were impossible to treat with hepatectomy and PAT and had been treated with TACE and excluding cases evaluated as Child-Pugh grade C in terms of hepatic functional reserve. The antitumor agent used for TACE was epirubicin.
The subject cases were randomly assigned to the TSU-68 administration group and the TSU-68 non-administration group. TSU-68 administration was initiated for cases assigned to the TSU-68 administration group within 2 weeks after TACE. TSU-68 was administered orally at a dose of 200 mg per administration twice daily after breakfast and dinner on consecutive days. No further treatment was given to the TSU-68 non-administration group after TACE and thus only follow-up observation was carried out.
Progression-free survival was defined as survival within the period from the day of TACE designated as the initial date of reckoning to any of dates on which the following events was observed, whichever came first.
1. Date on which the presence of progressive disease (hereinafter referred to as “PD”) was confirmed as a result of assessment of best overall response (date of testing). 2. Date on which a test subject died for any reason (date of death). 3. Date on which a test subject was assessed to have experienced clinically obvious deterioration of the disease or to be in need of post-TACE treatment even without confirmation of PD upon assessment of best overall response (date of assessment).
Best overall response was evaluated by measuring tumor diameters by CT and assaying tumor markers (AFP, PIVKA-II, and AFP-L3 fractions) according to New Guideline to Evaluate the Response to Treatment in Solid Tumor (hereinafter referred to as “RECIST”) (J Natl Cancer Inst 92: 205, 2000).

[2] = unresectable hepatocellular carcinoma patients; cited from earlier work
[3] = TACE-treated hepatocellular carcinoma patients of Child-Pugh grade A

Cc1[nH]c(/C=C2\C(=O)Nc3ccccc32)c(C)c1CCC(=O)O [TSU-68, (Z)-5-[(1,2-dihydro-2-oxo-3H-indol-3-ylidene)methyl]2,4-dimethyl-1H-pyrrol-3-propanoic acid]
Antitumor effect (tumor growth) [1]: effective for inhibiting tumor growth
Progression-free survival compared with the TSU-68 non-administration group (hepatocellular carcinoma; TACE-treated hepatocellular carcinoma patients): significantly extended
Progression-free survival compared with the TSU-68 non-administration group (hepatocellular carcinoma; [3]): significantly extended
Median of progression-free survival (hepatocellular carcinoma; [3]): 5.8 month
Severity of each adverse reaction (hepatocellular carcinoma; major adverse reactions: abdominal pain, ascites, edema, general fatigue, fever, feeling of sickness): grade 1 or 2
Median of progression-free survival (hepatocellular carcinoma; post-TACE hepatocellular carcinoma patients): 5.2 month

CNC(=O)c1cc(Oc2ccc(NC(=O)Nc3ccc(Cl)c(C(F)(F)F)c3)cc2)ccn1 [sorafenib]
Increase of AST level in patients [2]: 45%
Increase of bilirubin level (corresponding to score 3 or more) in patients [2]: 32%
